According to patent publication US5654274A, “Biologically active peptides having N-terminal substitutions” (priority 1995, dated 1997):
Ends that are not written are not given here. Peptide text beside a SMILES is read from it. * marks the point of attachment. Octanoyl = CCCCCCCC(=O)*

Columns and labels:
Format in all cases: cell-based
C. albicans = assay: MIC microtiter assay, C. albicans; settings: Mueller Hinton broth, 16-20 hours at 37° C.
From the text: (§1) Table I, which follows, indicates the Minimal Inhibitory Concentration (MIC) in μg/ml of various peptides, against S. aureus strain ATCC 25923(S), P. aeruginosa strain ATCC 27853(P), and E. coli ATCC strain 25922(E), and C. albicans (CA). […] The peptides ere unsubstituted at the N-terminal, substituted with an acetyl group at the N-terminal as indicated by Ac-; substituted with an octanoyl group at the N-terminal as indicated by Oct-, substituted with sphingosine as indicated by Sph-; substituted with a succinyl group, as indicated by Suc-; substituted with a hexanoyl group, as indicated by Hex-; substituted with a heptanoyl group, as indicated by Hep; substituted with a valeryl group, as indicated by Val-; substituted with, a myristryl group, as indicated by Myr-; or substituted with an ibuprofyl group, as indicated by Ibu-.
The procedure for the antibacterial assay is based upon the guidelines of the National Committee for Clinical Laboratory Standards, Document M7-T2, Volume 8, No. 8, 1988.
Stock solutions of peptides with and without the appropriate substitutions,are prepared at a concentration of 512 μg/ml in sterile deionized distilled water and stored at -70° C. Each peptide is a C-terminal amide.
The stock peptide solution is diluted in serial dilutions (1:2) down the wells of a microtiter plate so that the final concentrations of peptides in the wells are 0.25, 0.50, 1, 2, 4, 8, 16, 32, 64, 128, and 256 μg/ml. 1-5×10^5 CFUs/ml of either S. aureus ATCC 25923, E. coli ATCC 25922, P. aeruginosa ATCC 27853, or C. albicans, were added to the wells in full strength Mueller Hinton broth (BBL 11443) from a mid-log culture. The inoculum is standardized spectrophotometrically at 600 nm and is verified by colony counts. The plates are incubated for 16-20 hours at 37° C., and the minimal inhibitory concentration (MIC) for each peptide is determined. Minimal inhibitory concentration is defined as the lowest concentration of peptide which produces a clear well in the microtiter plate. […]

[1] = test system: S. aureus strain ATCC 25923; assay: Antibacterial MIC microtiter assay (NCCLS M7-T2), S. aureus; settings: S. aureus ATCC 25923; Mueller Hinton broth, 16-20 hours at 37° C.
From the text: as §1
(§2) The procedure for the antibacterial assay is based upon the guidelines of the National Committee for Clinical Laboratory Standards, Document M7-T2, Volume 8, No. 8, 1988. […]
(§3) The stock peptide solution is diluted in serial dilutions (1:2) down the wells of a microtiter plate so that the final concentrations of peptides in the wells are 0.25, 0.50, 1, 2, 4, 8, 16, 32, 64, 128, and 256 μg/ml. […] The plates are incubated for 16-20 hours at 37° C., and the minimal inhibitory concentration (MIC) for each peptide is determined. […]

[2] = test system: P. aeruginosa strain ATCC 27853; assay: Antibacterial MIC microtiter assay (NCCLS M7-T2), P. aeruginosa; settings: P. aeruginosa ATCC 27853; Mueller Hinton broth, 16-20 hours at 37° C.
From the text: as §1, §2, §3

[3] = test system: E. coli ATCC strain 25922; assay: Antibacterial MIC microtiter assay (NCCLS M7-T2), E. coli; settings: E. coli ATCC 25922; Mueller Hinton broth, 16-20 hours at 37° C.
From the text: as §1, §2, §3

A. viscosus = assay: Anaerobic antimicrobial susceptibility test (NCCLS M11-T2), A. viscosus; settings: BHI broth, 24-48 hours
S. mutans = assay: Anaerobic antimicrobial susceptibility test (NCCLS M11-T2), S. mutans; settings: BHI broth, 24-48 hours
P. gingivalis = assay: Anaerobic antimicrobial susceptibility test (NCCLS M11-T2), P. gingivalis; settings: 24-48 hours; for MIC P. gingivalis (strain) 9-14K-1: strain 9-14K-1, BHI broth; for MIC P. gingivalis (strain) 381: strain 381, BHI broth; for MIC P. gingivalis (strain) A7A1-28: strain A7A1-28, BHI broth; for MIC P. gingivalis (strain) FAY-19M-1: strain FAY-19M-1, BHI broth; for MIC P. gingivalis (strain) W50: strain W50, BHI broth

| Compound | Minimal Inhibitory Concentration CA (C. albicans) | Minimal Inhibitory Concentration S [1] | Minimal Inhibitory Concentration P [2] | Minimal Inhibitory Concentration E [3] | MIC A. viscos (A. viscosus) | MIC S. mutans (S. mutans) | MIC P. gingivalis (strain) 9-14K-1 (P. gingivalis) | MIC P. gingivalis (strain) 381 (P. gingivalis) | MIC P. gingivalis (strain) A7A1-28 (P. gingivalis) | MIC P. gingivalis (strain) FAY-19M-1 (P. gingivalis) | MIC P. gingivalis (strain) W50 (P. gingivalis) |
| --- | --- | --- | --- | --- | --- | --- | --- | --- | --- | --- | --- |
| CCCCCCCC(=O)N[C@@H](CCCCN)C(=O)N[C@@H](Cc1c[nH]c2ccccc12)C(=O)N[C@@H](CCCCN)C(=O)N[C@@H](CC(C)C)C(=O)N[C@@H](Cc1ccccc1)C(=O)N[C@@H](CCCCN)C(=O)N[C@@H](CCCCN)C(=O)N[C@H](C(=O)N[C@@H](CCC(=O)O)C(=O)N[C@@H](CCCCN)C(=O)N[C@H](C(N)=O)C(C)C)[C@@H](C)CC [Oct-(SEQ ID NO: 136)-NH2] (Octanoyl-KWKLFKKIEKV-NH2) | 128 µg/mL |  |  |  |  |  |  |  |  |  |  |
| CCCCCCCC(=O)NCC(=O)N[C@H](C(=O)N[C@@H](CCCCN)C(=O)N[C@@H](CCCCN)C(=O)N[C@@H](Cc1ccccc1)C(=O)N[C@@H](CC(C)C)C(=O)N[C@@H](CCCCN)C(=O)N[C@@H](CCCCN)C(=O)N[C@@H](C)C(=O)NCC(=O)N[C@@H](CCCCN)C(=O)N[C@@H](Cc1ccccc1)C(=O)NCC(=O)N[C@@H](CCCCN)C(=O)N[C@@H](C)C(=O)N[C@@H](Cc1ccccc1)C(N)=O)[C@@H](C)CC [Oct-(SEQ ID NO: 149)-NH2] (Octanoyl-GIKKFLKKAGKFGKAF-NH2) | 128 µg/mL |  |  |  |  |  |  |  |  |  |  |
| (SEQ ID NO: 27)-OH: unsubstituted (Lys Ile Ala Gly Lys Ile Ala)3, C-terminal OH (KIAGKIAKIAGKIAKIAGKIA-OH) |  | 128 µg/mL | 128 µg/mL | 8 µg/mL |  |  |  |  |  |  |  |
| (SEQ ID NO: 86)-OH: unsubstituted (Lys Ile Ala Lys Lys Ile Ala)3, C-terminal OH (KIAKKIAKIAKKIAKIAKKIA-OH) | 256 µg/mL | 128 µg/mL | 32 µg/mL | 2 µg/mL | 32 μl/ml | 16 μl/ml | 16 μl/ml | 16 μl/ml | 4 μl/ml | 8 μl/ml | 4 μl/ml |
| KIAKKIAKIAKKIAKIAKKIA-NH2 [(SEQ ID NO: 86)-NH2] |  |  |  |  | 16 μl/ml | 4 μl/ml | 8 μl/ml | 8 μl/ml | 2 μl/ml | 8,128 μl/ml | 4 μl/ml |
